# From the C3SDB collision cross section collection
# Conditions: [M+H]+; instrument: TW; Major Mix IMS/Tof Calibration Kit (Waters)
row,collision cross section (N2) [Å²],Compound
1,188.1,CN1CCN(CCCN2c3ccccc3Sc3ccc(C(F)(F)F)cc32)CC1 [Trifluoperazine]
2,183.2,Fc1ccc([C@@H]2CCNC[C@H]2COc2ccc3c(c2)OCO3)cc1 [Paroxetine]
3,165.8,CCOC(=O)c1ncn2c1CN(C)C(=O)c1cc(F)ccc1-2 [Flumazenil]
4,168.4,CN/C(=C\[N+](=O)[O-])NCCSCc1csc(CN(C)C)n1 [Nizatidine]
5,153.8,NC(=O)N1c2ccccc2CC(=O)c2ccccc21 [Oxcarbazepine]
6,222.7,CN(C)C(=O)C(CCN1CCC(O)(c2ccc(Cl)cc2)CC1)(c1ccccc1)c1ccccc1 [Loperamide]
7,177,COCCCC/C(=N\OCCN)c1ccc(C(F)(F)F)cc1 [Fluvoxamine]
8,192.2,O=C(NCC1CCCCN1)c1cc(OCC(F)(F)F)ccc1OCC(F)(F)F (centres undefined) [Flecainide]
9,172.6,OC(CCN1CCCC1)(c1ccccc1)C1CCCCC1 (centres undefined) [Procyclidine]
10,173.1,CCCCNc1ccc(C(=O)OCCN(C)C)cc1 [Tetracaine]
11,175.8,C=C[C@H]1C[N@@]2CC[C@H]1C[C@@H]2[C@@H](O)c1ccnc2ccc(OC)cc12 [Quinidine]
12,178.6,COc1ccc(CC(C)NCC(O)c2ccc(O)c(NC=O)c2)cc1 (centres undefined) [Formoterol]
13,171.2,CC(CN(C)C)CN1c2ccccc2CCc2ccccc21 (centres undefined) [Trimipramine]
14,206.2,C(=C\c1ccccc1)/CN1CCN(C(c2ccccc2)c2ccccc2)CC1 [Cinnarizine]
15,173.2,CCN(CC)CCNC(=O)c1cc(Cl)c(N)cc1OC [Metoclopramide]
16,137.7,Cc1cc(=O)n(-c2ccccc2)n1C [Phenazone]
17,176.5,CNCCC(Oc1ccc(C(F)(F)F)cc1)c1ccccc1 (centres undefined) [Fluoxetine]
18,197.8,COc1ccc([C@@H]2Sc3ccccc3N(CCN(C)C)C(=O)[C@@H]2OC(C)=O)cc1 [Diltiazem]
19,161.5,CN(C)CCCN1c2ccccc2Sc2ccccc21 [Promazine]
20,178.5,CCCNCC(O)COc1ccccc1C(=O)CCc1ccccc1 (centres undefined) [Propafenone]

row,collision cross section (N2) [Å²],Compound
1,207.3,COc1ccc(CCNCCCC(C#N)(c2ccc(OC)c(OC)c2)C(C)C)cc1OC (centres undefined) [Verapamil-M nor]
2,199.7,O=C(O)c1cc(/N=N/c2ccc(S(=O)(=O)Nc3ccccn3)cc2)ccc1O [Sulfasalazine]
3,161.3,CC(C)NC(=N)NC(=N)Nc1ccc(Cl)cc1 [Proguanil]
4,154.6,CCN(CC)CCOC(=O)c1ccc(N)cc1 [Procaine]
5,166.5,CN(C)CCCN1c2ccccc2CCc2ccccc21 [Imipramine]
6,186.6,C[C@]12CCC(=O)C=C1CC[C@@H]1[C@@H]2[C@@H](O)C[C@@]2(C)[C@H]1CC[C@]2(O)C(=O)CO [Hydrocortisone]
7,170.4,Cc1cc(C(C)(C)C)cc(C)c1CC1=NCCN1 [Xylometazoline]
8,163.9,OC(Cn1cncn1)(Cn1cncn1)c1ccc(F)cc1F [Fluconazole]
9,164.3,CN(C)CCC=C1c2ccccc2COc2ccccc21 [Doxepin]
10,200.3,CCCCc1nc(Cl)c(CO)n1Cc1ccc(-c2ccccc2-c2nn[nH]n2)cc1 [Losartan]
11,186.5,COC(=O)[C@@H]1[C@H]2C[C@H]3c4[nH]c5ccccc5c4CCN3C[C@@H]2CC[C@@H]1O [Yohimbine]
12,144,Clc1cccc(Cl)c1NC1=NCCN1 [Clonidine]
13,129.8,CC(=O)Nc1cccc(O)c1 [Metacetamol]
14,168.2,CC(CCc1ccc(O)cc1)NCCc1ccc(O)c(O)c1 (centres undefined) [Dobutamine]
15,160,CCC(c1ccccc1)c1c(O)c2ccccc2oc1=O (centres undefined) [Phenprocoumon]
16,197.8,COCCOC(=O)C1=C(C)NC(C)=C(C(=O)OC(C)C)C1c1cccc([N+](=O)[O-])c1 (centres undefined) [Nimodipine]
17,186.1,CN1CCC[C@@H]1Cc1c[nH]c2ccc(CCS(=O)(=O)c3ccccc3)cc12 [Eletriptan]
18,183.4,CCN1CC(CCN2CCOCC2)C(c2ccccc2)(c2ccccc2)C1=O (centres undefined) [Doxapram]
19,160,CC(C)(C)NCC(O)c1ccc(O)c(CO)c1 (centres undefined) [Salbutamol]

# Second part, the molecule before the results:
row,Compound,collision cross section (N2) [Å²]
1,O=C1CN=C(c2ccccc2)c2cc(Cl)ccc2N1CC(F)(F)F [Halazepam],170.9
2,"CCN(CC)CCc1c[nH]c2ccccc12 [""NN-Diethyltryptamine""]",148.6
3,C=CCN1CC[C@]23c4c5ccc(O)c4O[C@H]2C(=O)CC[C@@]3(O)[C@H]1C5 [Naloxone],171.8
4,CCCCc1oc2ccccc2c1C(=O)c1cc(I)c(OCCN(CC)CC)c(I)c1 [Amiodarone],226.4
5,CCCCn1cc(C(=O)c2cccc3ccccc23)c2ccccc21 [JWH-073],182.5
6,Clc1ccc2c(c1)C(N1CCNCC1)=Nc1ccccc1O2 [Amoxapine],170.2
7,NCC(CC(=O)O)c1ccc(Cl)cc1 (centres undefined) [Baclofen],149.2
8,C#CCN(C)[C@H](C)Cc1ccccc1 [Selegiline],142.1
9,c1ccc2c(c1)Cc1cccnc1N1CCNCC21 (centres undefined) [Mirtazapine-M N-desmethyl],156.9
10,OCc1nnc2n1-c1ccc(Cl)cc1C(c1ccccc1)=NC2 [Alprazolam-M alpha-Hydroxy],173.3
11,Clc1ccc(C(c2ccccc2)N2CCNCC2)cc1 (centres undefined) [Cetirizine-M N-desalkyl],168.4
12,C[C@@H](Cc1ccccc1)N(C)Cc1ccccc1 [Benzphetamine],154.8
13,C=CCc1ccccc1OCC(O)CNC(C)C (centres undefined) [Alprenolol],159.5
14,CCN(CC)C(=O)[C@@H]1C=C2c3cccc4[nH]cc(c34)C[C@H]2N(C)C1 [LSD],179.5
15,CC(=O)OC1CC[C@H]2[C@@H]3CC[C@H]4CC(=O)C=C(C)[C@]4(C)[C@H]3CC[C@]12C (some centres undefined) [Metenolone acetate],187.6
16,CC1NCCOC1c1ccccc1 (centres undefined) [Phenmetrazine],138.9
17,CC(C)NCC(O)COc1ccc(COCCOC(C)C)cc1 (centres undefined) [Bisoprolol],192.2
18,Cc1ccc(/C(=C\CN2CCCC2)c2cccc(/C=C/C(=O)O)n2)cc1 [Acrivastine],193.9
19,"CN(C)CCc1c[nH]c2ccccc12 [""NN-Dimethyltryptamine""]",143.5
20,CN(C)CCc1c[nH]c2cccc(O)c12 [Psilocin],144.8

row,Compound,collision cross section (N2) [Å²]
1,COc1ccc2c3c1O[C@H]1[C@@H](O)CC[C@H]4[C@@H](C2)N(C)CC[C@@]341 [Dihydrocodeine],168.6
2,FC(F)(F)c1cccc(N2CCNCC2)c1 [m-Trifluorophenylpiperazine (TFMPP)],151.1
3,CN(C)CCC=C1c2ccccc2CCc2ccccc21 [Amitriptyline],167.2
4,CCNC(C)Cc1ccc2c(c1)OCO2 (centres undefined) [MDEA],147.5
5,CCOC(=O)C1=C(COCCN)NC(C)=C(C(=O)OC)C1c1ccccc1Cl (centres undefined) [Amlodipine],188
6,CCN(CC)CCCC(C)Nc1ccnc2cc(Cl)ccc12 (centres undefined) [Chloroquine],176.8
7,O=c1[nH]c2ccccc2n1C1CCN(CCCC(c2ccc(F)cc2)c2ccc(F)cc2)CC1 [Pimozide],214.4
8,CCC(NC)C(=O)c1ccc2c(c1)OCO2 (centres undefined) [Butylone],151
9,CC(C)=CCN1CCC2(C)c3cc(O)ccc3CC1C2C (centres undefined) [Pentazocine],173.5
10,CCCC(NC)C(=O)c1ccccc1 (centres undefined) [Pentedrone],145.7
11,COc1ccc(Cc2nccc3cc(OC)c(OC)cc23)cc1OC [Papaverine],185.3
12,COc1ccc(N2CCNCC2)cc1 [N-(p-Methoxyphenyl)piperazine (pMeOPP)],141.9
13,Cc1ccc2nc(-c3ccc(C(=O)O)cc3)c(CC(=O)N(C)C)n2c1 [Zolpidem-M Carboxylic acid],184.4
14,CCC(Br)(CC)C(=O)NC(N)=O [Carbromal],139.8
15,CCC(Cc1ccc2c(c1)OCO2)NC (centres undefined) [MBDB],148.4
16,CN1c2ccccc2C(NCCCCCCC(=O)O)c2ccc(Cl)cc2S1(=O)=O (centres undefined) [Tianeptine],197
17,CN(C)CC/C=C1\c2ccccc2CC(O)c2ccccc21 (centres undefined) [Amitriptylin-M (E)-10-hydroxy],167.6
18,COc1cc(CCN)c(OC)cc1I [2C-I],157.7
19,CN1C(=O)C(O)N=C(c2ccccc2Cl)c2cc(Cl)ccc21 (centres undefined) [Lormetazepam],169.5
20,CCNC1(c2cccc(OC)c2)CCCCC1=O (centres undefined) [Methoxetamine],159.6
